BindingDB's records for doi:10.1021/jm970079r (Virginia Polytechnic Institute and State University, 1997)

Key:
[1] = molecular target: T1, Amine oxidase [flavin-containing] A (Homo sapiens, UniProt P21397); assay: Tested for inhibition- binding affinity against monoamine oxidase A catalyzed oxidation.; conditions: read-out: kon (M-1-s-1)
T1 sequence (P21397 whole entry): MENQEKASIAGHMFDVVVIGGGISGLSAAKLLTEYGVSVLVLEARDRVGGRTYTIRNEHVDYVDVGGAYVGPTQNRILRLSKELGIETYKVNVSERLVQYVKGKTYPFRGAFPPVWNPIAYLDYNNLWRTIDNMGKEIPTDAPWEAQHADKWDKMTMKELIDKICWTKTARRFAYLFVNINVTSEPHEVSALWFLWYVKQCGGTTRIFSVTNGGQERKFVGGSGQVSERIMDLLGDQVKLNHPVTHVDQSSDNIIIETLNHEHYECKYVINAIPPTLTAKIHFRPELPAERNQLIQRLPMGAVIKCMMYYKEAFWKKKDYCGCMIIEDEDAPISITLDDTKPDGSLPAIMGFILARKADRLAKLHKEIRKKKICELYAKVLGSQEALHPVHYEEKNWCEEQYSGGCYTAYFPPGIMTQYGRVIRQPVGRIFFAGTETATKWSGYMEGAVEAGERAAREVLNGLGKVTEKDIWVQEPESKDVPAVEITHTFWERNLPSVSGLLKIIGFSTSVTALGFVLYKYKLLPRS

[2] = molecular target: T2, Amine oxidase [flavin-containing] B (Bos taurus, UniProt P56560); assay: Tested for inhibition- binding affinity against monoamine oxidase B catalyzed oxidation.; conditions: read-out: kon (M-1-s-1)
T2 sequence (P56560 whole entry): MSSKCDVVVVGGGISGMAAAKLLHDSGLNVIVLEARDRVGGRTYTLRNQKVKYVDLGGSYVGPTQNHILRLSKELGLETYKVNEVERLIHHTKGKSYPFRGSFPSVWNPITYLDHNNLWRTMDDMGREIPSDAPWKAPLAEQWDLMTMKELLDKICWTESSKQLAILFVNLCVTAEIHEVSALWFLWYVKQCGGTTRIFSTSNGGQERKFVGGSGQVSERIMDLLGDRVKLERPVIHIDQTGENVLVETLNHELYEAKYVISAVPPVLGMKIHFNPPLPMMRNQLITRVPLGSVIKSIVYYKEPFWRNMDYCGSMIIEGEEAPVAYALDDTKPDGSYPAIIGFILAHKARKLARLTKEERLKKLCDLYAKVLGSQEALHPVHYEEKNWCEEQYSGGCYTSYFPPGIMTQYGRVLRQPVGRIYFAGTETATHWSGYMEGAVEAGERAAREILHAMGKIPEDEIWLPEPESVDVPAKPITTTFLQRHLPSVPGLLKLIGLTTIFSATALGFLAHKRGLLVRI

| SMILES | kon [1] [M⁻¹ s⁻¹] | kon [2] [M⁻¹ s⁻¹] |
| --- | --- | --- |
| C1=C(c2ccccc2-c2ccccc2)CCN(C2CC2)C1 | 220000 |  |
| C1=C(c2ccc3ccccc3c2)CCN(C2CC2)C1 | 380000 | 150000 |
| C1=C(c2ccccc2)CCN(C2CC2)C1 | 50000 | 180000 |
| C1=C(c2cccc3ccccc23)CCN(C2CC2)C1 | 400000 | 110000 |
| C1=C(c2cccc(-c3ccccc3)c2)CCN(C2CC2)C1 | 680000 | 440000 |
